Assay results taken from patent US20100273701A1, “USE OF SALUSIN BETA ALONE OR IN COMBINATION WITH OCTREOTIDE AS A THERAPEUTIC AGENT” (priority 2007, published 2010).

Tested on: drug-resistant Mycobacterium tuberculosis
Conditions: 10 micrograms per ml; seven days; strain resistant to PAS, streptomycin and isoniazid

Molecule	inhibition of the growth of Mycobacterium tuberculosis [%]
Ala-lle-Phe-Ile-Phe-Ile-Arg-Trp-Leu-Leu-Lys-Leu-Gly-His-His-Gly-Arg-Ala-Pro-Pro-OH [Peptide 1]	100
C[C@@H](O)[C@@H]1NC(=O)[C@H](CCCCN)NC(=O)[C@@H](Cc2c[nH]c3ccccc23)NC(=O)[C@H](Cc2ccccc2)NC(=O)[C@@H](NC(=O)[C@H](N)Cc2ccccc2)CSSC[C@@H](C(=O)N[C@H](CO)[C@@H](C)O)NC1=O [Peptide 2, D-Phe-Cys-Phe-D-Trp-Lys-Thr-Cys-L-threoninol]	100
